Data set [1] in a line: Real time stability of NAT in drug product formulations. Format: physicochemical. The method, then: NAT and NAT degradants were separated on an Agilent 1200 series HPLC or Waters H Class UPLC using an Agilent ZORBAX SB-C18 3.5 μm, 4.6×75 mm reverse phase column. Column temperature was held at 30±0.8° C. by a thermostat controller. The gradients used for HPLC and UPLC are listed in Tables 5 and 6, respectively (note: the shorter gradient on the UPLC was designed to accommodate earlier retention times and the column re-equilibration period was elongated due to the larger range of system pressure at a flow rate of 1.0 ml/min). NAT degradation products were detected at 240 nm. The standard bandwidth setting (8 nm for Agilent 1200 HPLC, 4.8 nm for Waters H-Class) was used for analysis on each instrument. The autosampler was maintained at 5±3° C. 10 nmol of NAT and/or NAT degradants (50 μl for most samples) was injected on to the column for analysis. The chromatograms were processed using Dionex Chromeleon software. Protein-containing samples were diluted in guanidine and the proteins removed via ultra-filtration (Amicon spin filters with a 30 kDa molecular weight cut-off). […] Using the final sample preparation conditions, recovery of NAT was 94-99% for three tested antibody/antibody derivatives and recovery of NAT degradants was 98-100% (data not shown). With this model experience in hand, the amount of NAT oxidation expected to occur in the manufacturing and storage of mAbs was explored next. FIG. 12 illustrates the comparison of the AAPH model stress system with an antibody at 150 mg/ml (1.0 mM) co-formulated with NAT, Met, and other excipients typical of mAb formulations. Results are shown for the initial time point, at −20° C. and 5° C. for six months (representative of typical storage conditions), and 25° C. for 6 months (representative of accelerated stability conditions). Oxidation levels were negligible directly after manufacturing and under the typical storage conditions tested.

Data set [2] can be described thus: AAPH oxidation stress of NAT in formulation buffer, RP-HPLC at 240 nm. Format: physicochemical. The following applies: for % NAT degradation ± 1SD: AAPH stress (1.0 mM AAPH, 40° C. 16 hours). The method, then: AAPH (Calbio Chem, 99.8%) was used to model oxidative degradation by alkyl peroxides. Histidine and non-histidine buffers at pH 5.5 containing 0.3 mM NAT ±5 mM L-Met pH 5.5 were treated with an aqueous AAPH solution to a final concentration of 1.0 mM AAPH. An equivalent volume of Milli-Q H2O was added to control samples. Samples were incubated at 40° C. for 16 hours. Oxidation was quenched by the addition of L-Met to a final concentration of 20 mM. After the addition of the quenching solution, the final NAT concentration was 0.2 mM. NAT and NAT degradants were separated on an Agilent 1200 series HPLC or Waters H Class UPLC using an Agilent ZORBAX SB-C18 3.5 μm, 4.6×75 mm reverse phase column. Column temperature was held at 30±0.8° C. by a thermostat controller. The gradients used for HPLC and UPLC are listed in Tables 5 and 6, respectively (note: the shorter gradient on the UPLC was designed to accommodate earlier retention times and the column re-equilibration period was elongated due to the larger range of system pressure at a flow rate of 1.0 ml/min). NAT degradation products were detected at 240 nm. The standard bandwidth setting (8 nm for Agilent 1200 HPLC, 4.8 nm for Waters H-Class) was used for analysis on each instrument. The autosampler was maintained at 5±3° C. 10 nmol of NAT and/or NAT degradants (50 μl for most samples) was injected on to the column for analysis. The chromatograms were processed using Dionex Chromeleon software. Protein-containing samples were diluted in guanidine and the proteins removed via ultra-filtration (Amicon spin filters with a 30 kDa molecular weight cut-off). […] Using the final sample preparation conditions, recovery of NAT was 94-99% for three tested antibody/antibody derivatives and recovery of NAT degradants was 98-100% (data not shown). […] Total NAT degradation for each sample was calculated by comparing NAT peak area to the control sample for each stress model (Table 7). NAT degradation ranged from 3% (thermal stress, non-His buffer) to 83% (ICH light stress, His buffer). The impact of low concentrations of protein on AAPH-induced NAT degradation was also analyzed. Two antibodies (protein1 and protein2) were diluted to 1.0 mg/ml in buffer and formulated with 0.3 mM NAT (˜45:1 mol NAT:mol protein). Upon AAPH stress, the level of NAT degradation was largely consistent between protein-containing and protein-free solutions (˜40% loss in NAT peak area), as was the distribution of oxidant species (FIG. 11).

SMILES strings stand for the structures. Where “and” joins values, the source holds several entries; their conditions need not be identical. Identical values can stand only once.

On to `CC(=O)N[C@@H](Cc1c[nH]c2ccccc12)C(=O)O` [NAT, N-acetyl-tryptophan], for which the “loss of NAT” value in data set [1] (3 months at 25° C., corresponding vehicle (formulation without protein)) is on record as 1%. In data set [1] (3 months at 25° C., protein containing sample (antibody 150 mg/ml, NAT, Met, excipients)), the NAT loss amounted to 7.5%. For the same compound, the NAT oxidation levels entry in data set [1] (directly after manufacturing and at −20° C. and 5° C. for six months, antibody 150 mg/ml co-formulated with NAT, Met) is “negligible”. Further, in data set [1] (six months at 25° C., antibody at 150 mg/ml (1.0 mM) co-formulated with NAT, Met and other excipients), the “total NAT loss” value is 16.8%. Also, the NAT degradation entry in data set [1] (vehicle (formulation without protein) at higher temperatures) is listed as “minimal NAT degradation”. Also, in data set [2] (AAPH model, depending on buffer), the “improvement to NAT stability by 5 mM Met (total NAT loss)” value is 4-8%. Besides, the “% NAT degradation ± 1SD” value is on record as 34.7 ± 0.1 (n = 3) % in data set [2] (His + 5 mM Met buffer, 0.3 mM NAT); 39.8 ± 0.2 (n = 3) % in data set [2] (His buffer pH 5.5, 0.3 mM NAT); 32.9 ± 0.5 (n = 3) % in data set [2] (Non-His + 5 mM Met buffer, 0.3 mM NAT); 41.1 ± 0.7 (n = 3) % in data set [2] (Non-His buffer pH 5.5, 0.3 mM NAT). In addition, in data set [2] (AAPH stress, under all tested conditions), the “NAT degradation (loss)” value is 30-40% and 33-41%. In addition, in data set [2] (AAPH stress, 0.3 mM NAT in histidine-based buffer, protein-free or with 1.0 mg/ml protein1 or protein2), the “loss in NAT peak area” value is given as approximately 40%.
